Assay results: US20220315624A1, “THIOSTREPTON ANALOGS AND METHODS OF MAKING AND USING SAME” (YALE UNIVERSITY, priority 2019, published 2022)
In brackets after ≈: the same amount, converted by molar mass. Like-named read-outs stand apart in the source and are kept apart here.

Columns and labels:
[1] = Aqueous solubility analysis in MOPS buffer; assay type: physicochemical; conditions: after 24 hours in 10 mM aqueous MOPS buffer; for solubility at 24 h: aqueous 10 mM MOPS buffer, thermodynamic from solid, pH 7.2
Procedure: A 2 dram vial was loaded with ˜0.5 mg of a thiostrepton derivative and suspended in ˜4 mL of aqueous 10 mM MOPS buffer (pKa 7.2). The suspension was stirred vigorously for 24 h to ensure equilibration, then filtered through a […] centrifuge filtration unit. A 3.0 mL aliquot was concentrated, and the dried residue was diluted with 0.30 mL of 1:1 1,4-dioxane/H2O (10× original concentration necessitated by detection limits). The total UV absorbance (200-300 nm) was measured in triplicate by UPLC runs with a photodiode array detector. A calibration curve for each compound was created using data points from 3 trials each of concentrations in 1:1 1,4-dioxane/H2O ranging from […]. These concentrations were plotted against their respective average absorbances. The experimental concentration of each compound was calculated by dividing the found μg/mL value by the residue concentration factor of 10 to yield the actual solubility value.

E. coli ATCC 25922 = assay: MIC broth microdilution; assay type: cell-based
Procedure: (§1) Twenty-four test agents were shipped to Micromyx and stored at −20° C. until assayed. The compounds were dissolved in 100% DMSO at 6.46 mg/mL prior to testing. Comparator drugs were supplied by Micromyx and were handled as described below:
(§2) The test organisms for the assay were recent clinical isolates or reference strains acquired from the American Type Culture Collection (ATCC; Manassas, Va.). Upon receipt, the isolates were streaked onto Trypticase Soy Agar II+5% sheep blood (TSAB). Colonies were harvested from the plates and a cell suspension was prepared in Trypticase Soy Broth containing cryoprotectant. Aliquots were then frozen at −80° C. Prior to the assay, the frozen seeds of all bacterial isolates to be tested were thawed and streaked for isolation onto TSAB (BD/BBL, Sparks, Md.; Lot No. 9011894), and were incubated overnight at 35° C.
(§3) The test medium for all isolates was cation-adjusted Mueller Hinton broth (CAMHB; BD/BBL; Lot No. 8190586). CAMHB (Cation Adjusted Mueller Hinton Broth) was supplemented with 3% (v/v) lysed horse blood (LHB; Hemostat, Dixon, Calif.; Lot No. 474990) for the testing of streptococci.
(§4) MIC values were determined using a broth microdilution method as recommended by CLSI. Automated liquid handlers (Multidrop 384, Labsystems, Helsinki, Finland; Biomek 2000 and Biomek F/X, Beckman Coulter, Fullerton Calif.) were used to conduct serial dilutions and make liquid transfers.
(§5) The wells of standard 96-well microdilution plates (Costar 3795, Corning Inc., Corning, N.Y.) were filled with 150 μL of the appropriate diluent in columns 2-12 on the Multidrop 384 (DMSO for the thiostrepton analogs, deionized H2O for vancomycin and ceftazidime). These plates were used to prepare the drug “mother plate” which provided the serial drug dilutions for the replicate “daughter plates”. The compounds (300 μL) were dispensed at 101× the highest concentration to be tested into the appropriate row of the “mother plate”. The Biomek 2000 was used to transfer 150 μL of each stock solution from the wells in Column 1 of the mother plate to make ten subsequent 2-fold serial dilutions. The wells of Column 12 contained no drug and served as the organism growth control wells. The daughter plates were loaded with 190 μL of test medium using the Multidrop 384.
(§6) The daughter plates were prepared on the Biomek F/X instrument which transferred […] of drug solution from each well of the mother plate to each corresponding well of each daughter plate in a single step. The wells of the daughter plates ultimately contained 190 μL of media, 2 μL of drug solution, and 10 μL of inoculum prepared as described below. The final concentration of DMSO (if used as a solvent) in the test well was 1%.
(§7) A standardized inoculum of each organism was prepared per CLSI methods. A suspension of organisms from a fresh plate was prepared in CAMHB to equal the turbidity of a 0.5 McFarland standard. The suspensions were diluted 1:20 in CAMHB, or in the case of streptococci CAMHB with LHB. The inoculum for each organism was dispensed into sterile reservoirs divided by length (Beckman Coulter), and the Biomek 2000 was used to inoculate the plates. Daughter plates were placed on the Biomek 2000 work surface reversed so that inoculation took place from low to high drug concentration. The Biomek 2000 delivered 10 μL of standardized inoculum into each well. These dilutions yielded a final cell concentration in the daughter plates of approximately 5.0×10^5 CFU/mL.
(§8) Plates were stacked 3 high, covered with a lid on the top plate, placed in plastic bags, and incubated at 35° C. for 16-20 hr for all organisms except streptococci which were incubated for 20-24 hr. Following incubation, the microplates were removed from the incubator and viewed from the bottom using a plate viewer. The MIC was read and recorded as the lowest concentration of drug that inhibited visible growth of the organism. […]

[2] = test system: E. faecalis ATCC 29212 VSE; assay: MIC broth microdilution; assay type: cell-based; conditions: Enterococcus faecalis, ATCC29212
Procedure: as §1, §2, §3, §4, §5, §6, §7, §8

E. faecalis MMX 486 VRE = assay: MIC broth microdilution; assay type: cell-based; conditions: Enterococcus faecalis
Procedure: as §1, §2, §3, §4, §5, §6, §7, §8

E. faecium MMX 485 VRE = assay: MIC broth microdilution; assay type: cell-based; conditions: Enterococcus faecium
Procedure: as §1, §2, §3, §4, §5, §6, §7, §8

E. faecium MMX 708 VSE = assay: MIC broth microdilution; assay type: cell-based; conditions: Enterococcus faecium, MMX708VSE
Procedure: as §1, §2, §3, §4, §5, §6, §7, §8

[3] = test system: S. aureus ATCC 29213 MSSA; assay: MIC broth microdilution; assay type: cell-based; conditions: Staphylococcus aureus
Procedure: as §1, §2, §3, §4, §5, §6, §7, §8

S. aureus MMX 8088 MRSA = assay: MIC broth microdilution; assay type: cell-based; conditions: Staphylococcus aureus
Procedure: as §1, §2, §3, §4, §5, §6, §7, §8

[4] = test system: S. pneumoniae ATCC 49619 PISP; assay: MIC broth microdilution; assay type: cell-based; conditions: Streptococcus pneumoniae, ATCC49619, 20 h
Procedure: as §1, §2, §3, §4, §5, §6, §7, §8

S. pyogenes ATCC 19615 = assay: MIC broth microdilution; assay type: cell-based; conditions: Streptococcus pyogenes, ATCC19615, 20 h
Procedure: as §1, §2, §3, §4, §5, §6, §7, §8

S. aureus isolates = assay: MIC broth microdilution, S. aureus isolates; assay type: cell-based; conditions: for MIC: Staphylococcus aureus, read-out: MIC values against S. aureus isolates
Procedure: as §1, §2, §3, §4, §5, §6, §7, §8

[5] = test system: E. faecalis and E. faecium; assay: MIC broth microdilution, summary over enterococci; assay type: cell-based; conditions: for MIC: read-out: MIC values against E. faecalis and E. faecium
Procedure: as §1, §2, §3, §4, §5, §6, §7, §8

[6] = test system: S. pneumoniae and S. pyogenes isolates; assay: MIC broth microdilution, summary over streptococci; assay type: cell-based; conditions: read-out: MIC values against S. pneumoniae and S. pyogenes isolates
Procedure: as §1, §2
The test medium for all isolates was cation-adjusted Mueller Hinton broth (CAMHB; BD/BBL; Lot No. 8190586). […]
MIC values were determined using a broth microdilution method as recommended by CLSI. […]
(§9) Plates were stacked 3 high, covered with a lid on the top plate, placed in plastic bags, and incubated at 35° C. for 16-20 hr for all organisms except streptococci which were incubated for 20-24 hr. […] The MIC was read and recorded as the lowest concentration of drug that inhibited visible growth of the organism. […]

[7] = Un-inoculated solubility control plate (drug precipitation); assay type: physicochemical; conditions: for Precipitation in CAMHB: at 64 μg/mL in CAMHB; for Precipitation in CAMHB in LHB: at 64 μg/mL in CAMHB in LHB
Gram-positive cocci = assay: MIC broth microdilution, overall summary; assay type: cell-based; conditions: summary of MIC testing
Procedure: as §1, §2, §3, §4, §5
The daughter plates were prepared on the Biomek F/X instrument which transferred […] of drug solution from each well of the mother plate to each corresponding well of each daughter plate in a single step. […]
as §9

[8] = Escherichia coli, ATCC25922, E. coli ATCC 25922, CAMHB, read-out: MIC
[9] = E. faecalis ATCC 29212 VSE, CAMHB, read-out: MIC
[10] = E. faecalis MMX 486 VRE, CAMHB, read-out: MIC
[11] = E. faecium MMX 485 VRE, CAMHB, read-out: MIC
[12] = E. faecium MMX 708 VSE, CAMHB, read-out: MIC
[13] = S. aureus ATCC 29213 MSSA, CAMHB, read-out: MIC
[14] = S. aureus MMX 8088 MRSA, CAMHB, read-out: MIC
[15] = S. pneumoniae ATCC 49619 PISP, CAMHB with 3% lysed horse blood, read-out: MIC
[16] = S. pyogenes ATCC 19615, CAMHB with 3% lysed horse blood, read-out: MIC
[17] = across the evaluated enterococci, VSE and VRE

Row | SMILES | Precipitation in CAMHB [7] | Precipitation in CAMHB in LHB [7] | Activity among the evaluated analogs / against evaluated Gram-positive cocci (summary in words) (Gram-positive cocci) | solubility at 24 h [1] [µg/mL] | MIC (E. coli ATCC 25922; [8]) [µg/mL] | MIC [2, 9] [µg/mL] | MIC (E. faecalis MMX 486 VRE; [10]) [µg/mL] | MIC (E. faecium MMX 485 VRE; [11]) [µg/mL] | MIC (E. faecium MMX 708 VSE; [12]) [µg/mL] | MIC [3, 13] [µg/mL] | MIC (S. aureus MMX 8088 MRSA; [14]) [µg/mL] | MIC [4, 15] [µg/mL] | MIC (S. pyogenes ATCC 19615; [16]) [µg/mL] | MIC (S. aureus isolates; across MSSA and MRSA isolates) [µg/mL] | MIC [5, 17] [µg/mL] | further results
1 | C=C(NC(=O)C(=C)NC(=O)c1csc(C2=N[C@@H]3c4csc(n4)[C@H]4NC(=O)c5csc(n5)[C@H]([C@](C)(O)[C@@H](C)O)NC(=O)[C@H]5CSC(=N5)/C(=C/C)NC(=O)[C@H]([C@@H](C)O)NC(=O)c5csc(n5)[C@]3(CC2)NC(=O)[C@H](C)NC(=O)C(=C)NC(=O)[C@H](C)NC(=O)[C@H]([C@@H](C)CC)N[C@@H]2C=Cc3c([C@H](C)O)cc(nc3[C@H]2O)C(=O)O[C@@H]4C)n1)C(N)=O [Thiostrepton] | distinct precipitation | distinct precipitation | potent activity | – | – | – | – | – | – | – | – | – | – | – | – | Solubility pH 7.2 [1]: 3.0 (±0.2) μg/mL; MIC (E. coli ATCC 25922; E. coli ATCC 25922, CAMHB): >64 µg/mL; MIC (E. coli ATCC 25922; Escherichia coli, ATCC25922): > 64 µg/mL; MIC [2]: 0.12 µg/mL (≈ 0.0721 µM); MIC (E. faecalis MMX 486 VRE; VRE): 0.12 µg/mL (≈ 0.0721 µM); MIC (E. faecium MMX 485 VRE; VRE): 0.06 µg/mL (≈ 0.036 µM); MIC (E. faecium MMX 708 VSE): 0.12 µg/mL (≈ 0.0721 µM); MIC [3]: 0.06 µg/mL (≈ 0.036 µM); MIC (S. aureus MMX 8088 MRSA; MRSA): 0.12 µg/mL (≈ 0.0721 µM); MIC [4]: < 0.001 µg/mL; MIC (S. pyogenes ATCC 19615): < 0.001 µg/mL; MIC (S. aureus isolates): 0.06 to 0.12 µg/mL (≈ 0.036 to 0.0721 µM); MIC values against MRSA relative to MSSA (S. aureus isolates; identical or within 2-fold, impact of methicillin resistance): ≤ 2 fold; VRE MIC values relative to VSE MIC values ([5]; impact of vancomycin resistance among enterococci): comparable; MIC [5]: 0.06 to 0.12 µg/mL (≈ 0.036 to 0.0721 µM); MIC [6]: ≤ 0.001 µg/mL
2 | C=C(NC(=O)c1csc(C2=N[C@@H]3c4csc(n4)[C@H]4NC(=O)c5csc(n5)[C@H]([C@](C)(O)[C@@H](C)O)NC(=O)C5CSC(=N5)/C(=C/C)NC(=O)[C@H]([C@@H](C)O)NC(=O)c5csc(n5)[C@]3(CC2)NC(=O)[C@H](C)NC(=O)C(=C)NC(=O)[C@H](C)NC(=O)[C@H]([C@@H](C)CC)N[C@@H]2C=Cc3c([C@H](C)O)cc(nc3[C@H]2O)C(=O)O[C@@H]4C)n1)C(=O)NC(=CNC(=O)c1cccc(/C=N/OC2O[C@H](CO)[C@@H](O)[C@H](O)[C@H]2O)c1)C(N)=O (stereo partly drawn) [RJS-16] | – | distinct precipitation | least activity | 11 (≈ 5.53 µM) | > 64 | 16 (≈ 8.04 µM) | 16 (≈ 8.04 µM) | 8 (≈ 4.02 µM) | 16 (≈ 8.04 µM) | 16 (≈ 8.04 µM) | 16 (≈ 8.04 µM) | 0.25 (≈ 0.126 µM) | 0.25 (≈ 0.126 µM) | 16 (≈ 8.04 µM) | 8 to 16 (≈ 4.02 to 8.04 µM) | MIC ([6]; across evaluated streptococci): 0.25 µg/mL (≈ 0.126 µM)
3 | C=C(NC(=O)c1csc(C2=N[C@@H]3c4csc(n4)[C@H]4NC(=O)c5csc(n5)[C@H]([C@](C)(O)[C@@H](C)O)NC(=O)C5CSC(=N5)/C(=C/C)NC(=O)[C@H]([C@@H](C)O)NC(=O)c5csc(n5)[C@]3(CC2)NC(=O)[C@H](C)NC(=O)C(=C)NC(=O)[C@H](C)NC(=O)[C@H]([C@@H](C)CC)N[C@@H]2C=Cc3c([C@H](C)O)cc(nc3[C@H]2O)C(=O)O[C@@H]4C)n1)C(=O)NC(=CNC(=O)c1ccc(Cl)cc1)C(N)=O [RJS-09] | distinct precipitation | – | most activity | < 1 | > 64 | 0.25 (≈ 0.137 µM) | 0.25 (≈ 0.137 µM) | 0.12 (≈ 0.066 µM) | 0.25 (≈ 0.137 µM) | 0.25 (≈ 0.137 µM) | 0.5 (≈ 0.275 µM) | < 0.001 | 0.002 (≈ 0.0011 µM) | 0.25 to 0.5 (≈ 0.137 to 0.275 µM) | 0.12 to 0.25 (≈ 0.066 to 0.137 µM) | –
